Data as given in patent publication US11851449B2, “Heterocyclic amide compounds having an RORvt inhibitory action” (TAKEDA PHARMACEUTICAL COMPANY LIMITED, priority 2013, dated 2023).
Where two headings read alike, the source gives them in different places.

Legend:
[1] = target: T1, RORγt (Homo sapiens, UniProt P51449); experiment: RORγt binding test (TR-FRET, fluorescent-labeled cholesterol); details: read-out: binding inhibitory rate (%) of fluorescent-labeled cholesterol to RORγt at test compound 1 μM
T1 sequence (P51449 1-497 isoform P51449-2): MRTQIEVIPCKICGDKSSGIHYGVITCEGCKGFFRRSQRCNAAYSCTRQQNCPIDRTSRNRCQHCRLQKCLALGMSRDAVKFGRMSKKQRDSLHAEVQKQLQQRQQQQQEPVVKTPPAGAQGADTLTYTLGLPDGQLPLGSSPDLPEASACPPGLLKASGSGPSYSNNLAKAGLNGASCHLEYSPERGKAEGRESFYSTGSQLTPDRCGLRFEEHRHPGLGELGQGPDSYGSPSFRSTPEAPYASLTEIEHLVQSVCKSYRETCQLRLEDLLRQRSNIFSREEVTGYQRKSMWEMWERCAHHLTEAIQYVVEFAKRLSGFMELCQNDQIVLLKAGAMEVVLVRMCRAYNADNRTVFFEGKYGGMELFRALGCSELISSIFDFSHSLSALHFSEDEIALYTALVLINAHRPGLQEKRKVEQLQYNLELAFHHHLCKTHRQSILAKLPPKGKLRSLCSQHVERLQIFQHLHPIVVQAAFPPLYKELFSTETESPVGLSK
Experimental: The binding activity of the test compound to RORγt was measured by a time resolved fluorescence resonance energy transfer method (TR-FRET) utilizing histidine-tagged RORγt, fluorescent-labeled cholesterol (BODIPY-cholesterol, AVIVA), and terbium-labeled anti-histidine tag antibody (Invitrogen). First, a test compound diluted with an assay buffer (20 mM Tris-HCl (pH 7.5), 100 mM NaCl, 1 mM DTT, 0.1% BSA) was added to a 384 well plate by 3 μL. Then, RORγt diluted with an assay buffer to 240 nM was added by 3 μL, after which fluorescent-labeled cholesterol diluted with the assay buffer to 12 μM was added by 3 μL, and the mixture was stood at room temperature for 20 min. Thereafter, a terbium-labeled anti-histidine tag antibody diluted with the assay buffer to 8 nM was added by 3 μL. The mixture was stood at room temperature for 20 min, and fluorescence intensity (excitation wavelength 320 nm, fluorescence wavelength 520 nm, delay time 100 microseconds) was measured by Envision (PerkinElmer).

[2] = target: T1, RORγt; experiment: Cofactor recruitment test (Alpha Screen, biotinylated SRC-1 peptide); type: biochemical; details: read-out: signal value inhibitory rate (%) at test compound 1 μM
Experimental: Cofactor Recruitment Test
Cofactor recruitment test was performed by Alpha Screen (Histidine Detection Kit, PerkinElmer) method. First, a test compound was diluted with an assay buffer (50 mM Tris-HCl (pH 7.5), 50 mM KCl, 1 mM DTT, 0.1% BSA) and added to a 384 well plate by 5 μL. […] The mixture was stood in a dark place for 1 hr, and the signal value was measured by Envision (PerkinElmer).

[3] = target: T1, RORγt; experiment: Jurkat reporter test (human IL-17 ROR response element luciferase reporter); type: cell-based; details: read-out: luminescence level inhibitory rate (%) at test compound 3 μM
Experimental: The Jurkat cells used for the reporter test were cultured in a culture medium (RPMI (Invitrogen), 10% FCS (AusGeneX), 100 U/mL penicillin, 100 μg/mL streptomycin). On the day of the test, 4×10^7 cells were recovered by a centrifugal operation (1000 rpm, 5 min.) and suspended in PBS (phosphate buffered saline) (Invitrogen). Thereafter, the cells were recovered again by a centrifugal operation, and suspended in 2 mL of R buffer (NEON transfection kit, Invitrogen). […] Gene transfer was performed by Electroporation apparatus (NEON, Invitrogen) under the conditions of pulse voltage 1350 V, interval 10 milliseconds, number of times 3. The cells after gene transfer were suspended in 40 mL of a reaction medium (RPMI, 10% Lipid reduced FCS (HyClone), 10 mM HEPES (pH 7.5), 100 U/mL penicillin, 100 μg/mL streptomycin, 5 μM lovastatin), and plated in a 96 well plate by 90 μL. A test compound diluted with the reaction medium was added by 10 μL, and the cells were cultured overnight in an incubator. Bright-Glo (Promega) was added by 100 μL, and the mixture was stirred at room temperature for 10 min, and the luminescence level was measured by Envision (PerkinElmer).

[4] = test compound 3 μM, Jurkat cells

inhibition at 3 µM [3, 4] [%]	Structure (SMILES)	inhibition at 1 µM [1] [%]	inhibition at 1 µM [2] [%]	inhibition at 3 µM ([3]; Jurkat) [%]
–	COCc1ccc([C@@H](NC(=O)Cn2ccc(=O)cc2)C(=O)Nc2ccc([Si](C)(C)C)c(F)c2)cc1 [Example 78, (2R)—N-(3-fluoro-4-(trimethylsilyl)phenyl)-2-(4-(methoxymethyl)phenyl)-2-(((4-oxopyridin-1(4H)-yl)acetyl)amino)acetamide]	102	93.2	96
–	COCc1ccc([C@@H](NC(=O)C2CC2(F)F)C(=O)Nc2ccc([Si](C)(C)C)c(F)c2)cc1 (stereo partly drawn) [Example 84, 2,2-difluoro-N-((1R)-2-((3-fluoro-4-(trimethylsilyl)phenyl)amino)-1-(4-(methoxymethyl)phenyl)-2-oxoethyl)cyclopropanecarboxamide]	101	94.4	100
–	COc1ccc([C@@H](NC(=O)N2CC[C@@H](O)C2)C(=O)Nc2ccc([Si](C)(C)C)c(F)c2)cc1 [Example 71, (3R)—N-((1R)-2-((3-fluoro-4-(trimethylsilyl)phenyl)amino)-1-(4-methoxyphenyl)-2-oxoethyl)-3-hydroxypyrrolidine-1-carboxamide]	101	89.9	99
–	COCc1ccc([C@@H](NC(=O)Cc2cc(O)no2)C(=O)Nc2ccc([Si](C)(C)C)c(F)c2)cc1 [Example 75, (2R)—N-(3-fluoro-4-(trimethylsilyl)phenyl)-2-(((3-hydroxy-1,2-oxazol-5-yl)acetyl)amino)-2-(4-(methoxymethyl)phenyl)acetamide]	102	95.8	99.7
–	COCc1ccc([C@@H](NC(=O)CC2CCOCC2)C(=O)Nc2ccc([Si](C)(C)C)c(F)c2)cc1 [Example 89, (2R)—N-(3-fluoro-4-(trimethylsilyl)phenyl)-2-(4-(methoxymethyl)phenyl)-2-((tetrahydro-2H-pyran-4-ylacetyl)amino)acetamide]	103	95.5	101
98.5	COCc1ccc([C@@H](NC(=O)CC2CC(=O)NC(=O)C2)C(=O)Nc2ccc(C(C)(C)C)c(F)c2)cc1 [Example 117, (2R)—N-(4-tert-butyl-3-fluorophenyl)-2-(((2,6-dioxopiperidin-4-yl)acetyl)amino)-2-(4-(methoxymethyl)phenyl)acetamide]	103	78.4	–
99.4	COCc1ccc([C@@H](NC(=O)Cn2cnccc2=O)C(=O)Nc2ccc(C(C)(C)C)c(F)c2)cc1 [Example 100, (2R)—N-(4-tert-butyl-3-fluorophenyl)-2-(4-(methoxymethyl)phenyl)-2-(((6-oxopyrimidin-1(6H)-yl)acetyl)amino)acetamide]	99.6	86.3	–
–	COCc1ccc([C@@H](NC(=O)CCC(=O)O)C(=O)Nc2cc(F)c([Si](C)(C)C)c(F)c2)cc1 [Example 108, 4-(((1R)-2-((3,5-difluoro-4-(trimethylsilyl)phenyl)amino)-1-(4-(methoxymethyl)phenyl)-2-oxoethyl)amino)-4-oxobutanoic acid]	100	95.3	99.7
–	COCc1ccc([C@@H](NC(=O)CNC(C)=O)C(=O)Nc2ccc([Si](C)(C)C)c(F)c2)cc1 [Example 86, N^2-acetyl-N-((1R)-2-((3-fluoro-4-(trimethylsilyl)phenyl)amino)-1-(4-(methoxymethyl)phenyl)-2-oxoethyl)glycinamide]	102	95.2	99.1
100	COCc1ccc([C@@H](NC(=O)Cc2nnc(C)o2)C(=O)Nc2ccc(C(C)(C)C)c(F)c2)cc1 [Example 105, (2R)—N-(4-tert-butyl-3-fluorophenyl)-2-(4-(methoxymethyl)phenyl)-2-(((5-methyl-1,3,4-oxadiazol-2-yl)acetyl)amino)acetamide]	101	85.5	–
–	COCc1ccc([C@@H](NC(=O)CCCC(=O)O)C(=O)Nc2cc(F)c([Si](C)(C)C)c(F)c2)cc1 [Example 107, 5-(((1R)-2-((3,5-difluoro-4-(trimethylsilyl)phenyl)amino)-1-(4-(methoxymethyl)phenyl)-2-oxoethyl)amino)-5-oxopentanoic acid]	103	95.7	100
–	COCc1ccc([C@@H](NC(=O)[C@H]2CNC(=O)C2)C(=O)Nc2cc(F)c([Si](C)(C)C)cc2F)cc1 [Example 55, (3R)—N-((1R)-2-((2,5-difluoro-4-(trimethylsilyl)phenyl)amino)-1-(4-(methoxymethyl)phenyl)-2-oxoethyl)-5-oxopyrrolidine-3-carboxamide]	102	95.8	98.6
97.6	CC(C)(C)c1ccc(NC(=O)[C@H](NC(=O)CC(F)(F)F)C2CCOCC2)cc1Cl [Example 9, N-((1R)-2-((4-tert-butyl-3-chlorophenyl)amino)-2-oxo-1-(tetrahydro-2H-pyran-4-yl)ethyl)-3,3,3-trifluoropropanamide]	100	29.7	–
–	COc1ccc(C(NC(=O)N2CC(O)C2)C(=O)Nc2cc(F)c([Si](C)(C)C)c(F)c2)cc1 (stereo not drawn) [Example 41, N-(2-((3,5-difluoro-4-(trimethylsilyl)phenyl)amino)-1-(4-methoxyphenyl)-2-oxoethyl)-3-hydroxyazetidine-1-carboxamide]	101	94.4	100
–	COCc1ccc([C@@H](NC(=O)c2cc(O)no2)C(=O)Nc2cc(F)c([Si](C)(C)C)c(F)c2)cc1 [Example 82, N-((1R)-2-((3,5-difluoro-4-(trimethylsilyl)phenyl)amino)-1-(4-(methoxymethyl)phenyl)-2-oxoethyl)-3-hydroxy-1,2-oxazole-5-carboxamide]	103	96.8	97
–	COc1ccc([C@@H](NC(=O)[C@H]2CNC(=O)C2)C(=O)Nc2ccc([Si](C)(C)C)c(F)c2)cc1 [Example 70, (3R)—N-((1R)-2-((3-fluoro-4-(trimethylsilyl)phenyl)amino)-1-(4-methoxyphenyl)-2-oxoethyl)-5-oxopyrrolidine-3-carboxamide]	101	82.8	96.5
–	COc1ccc([C@@H](NC(=O)c2cc(O)no2)C(=O)Nc2ccc([Si](C)(C)C)c(F)c2)cc1 [Example 83, N-((1R)-2-((3-fluoro-4-(trimethylsilyl)phenyl)amino)-1-(4-methoxyphenyl)-2-oxoethyl)-3-hydroxy-1,2-oxazole-5-carboxamide]	100	86.5	63.2
–	COc1ccc([C@@H](NC(=O)c2cc(O)no2)C(=O)Nc2cc(F)c([Si](C)(C)C)c(F)c2)cc1 [Example 99, N-((1R)-2-((3,5-difluoro-4-(trimethylsilyl)phenyl)amino)-1-(4-methoxyphenyl)-2-oxoethyl)-3-hydroxy-1,2-oxazole-5-carboxamide]	102	94.3	99.9
